Active and inactive are the calls of the source. The calls are words filed in the database; no cut-off is given here.
Key:
Oryctolagus cuniculus [1] = species: Oryctolagus cuniculus; experiment: Binding affinity to rabbit anti-HRP immunoglobulin G antibody at 5 ug/ml using p-nitrophenyl-phosphate substrate after 15 mins by ELISA
Homo sapiens = species: Homo sapiens; experiment: Binding affinity to human anti-bromelain immunoglobulin E in multiple pollen sensitised patient serum using after 30 mins by ELISA
Oryctolagus cuniculus [2] = species: Oryctolagus cuniculus; experiment: Binding affinity to rabbit anti-bee venom immunoglobulin G antibody at 5 ug/ml using p-nitrophenyl-phosphate substrate after 15 mins by ELISA

Row | Activity (Oryctolagus cuniculus [1]) | Compound | Activity (Homo sapiens) | Activity (Oryctolagus cuniculus [2])
1 | Active | O=C(CCCCCO[C@@H]1O[C@H](CO[C@H]2O[C@H](CO)[C@@H](O)[C@H](O)[C@@H]2O)[C@@H](O)[C@H](O)[C@@H]1O[C@@H]1OC[C@@H](O)[C@H](O)[C@H]1O)NCCCCCCNC(=O)CCCC[C@@H]1SC[C@@H]2NC(=O)N[C@@H]21 |  | 
2 | Active | CC(=O)N[C@H]1[C@H](O[C@H]2[C@H](O[C@@H]3O[C@@H](C)[C@@H](O)[C@@H](O)[C@@H]3O)[C@@H](NC(C)=O)[C@H](OCCCCCC(=O)NCCCCCCNC(=O)CCCC[C@H]3[C@H]4NC(=O)N[C@H]4CS3(=O)=O)O[C@@H]2CO)O[C@H](CO)[C@@H](O)[C@@H]1O | Active | 
3 | Active | O=C(CCCCCO[C@@H]1O[C@H](CO[C@H]2O[C@H](CO)[C@@H](O)[C@H](O)[C@@H]2O)[C@@H](O)[C@H](O[C@@H]2O[C@@H](CO)[C@H](O)[C@@H](O)[C@H]2O)[C@@H]1O[C@@H]1OC[C@@H](O)[C@H](O)[C@H]1O)NCCCCCCNC(=O)CCCC[C@@H]1SC[C@@H]2NC(=O)N[C@@H]21 | Active | 

Row | Compound | Activity (Oryctolagus cuniculus [1]) | Activity (Homo sapiens) | Activity (Oryctolagus cuniculus [2])
4 | CC(=O)N[C@H]1[C@H](O[C@H]2[C@H](O[C@@H]3O[C@@H](C)[C@@H](O)[C@@H](O)[C@@H]3O)[C@@H](NC(C)=O)[C@H](OCCCCCC(=O)NCCCCCCNC(=O)CCCC[C@H]3[C@H]4NC(=O)N[C@H]4CS3(=O)=O)O[C@@H]2CO[C@H]2O[C@H](C)[C@H](O)[C@H](O)[C@H]2O)O[C@H](CO)[C@@H](O)[C@@H]1O | Active | Active | inactive

From ChEMBL document CHEMBL1667825, “Synthesis of cross-reactive carbohydrate determinants fragments as tools for in vitro allergy diagnosis” (Bioorg Med Chem, 2011)
